Results: patent US6127382A, “Amines substituted with a tetrahydroquinolinyl group an aryl or heteroaryl group and an alkyl group, having retinoid-like biological activity” (Allergan Sales, Inc., priority 1999, dated 2000)

Legend:
[1] = molecular target: T1, RXRα (Homo sapiens, UniProt P19793); experiment: holoreceptor transactivation assay, RXRα; format: cell-based; conditions: for EC50: holoreceptor assay, read-out: RXR Trans EC50 α; for Emax: relative to 10^-6 M cyclopropyl penta-2,4-dienoic acid reference, read-out: % efficacy, RXRα transactivation
T1 construct: expressed in transfected cells
T1 sequence (P19793 1-462): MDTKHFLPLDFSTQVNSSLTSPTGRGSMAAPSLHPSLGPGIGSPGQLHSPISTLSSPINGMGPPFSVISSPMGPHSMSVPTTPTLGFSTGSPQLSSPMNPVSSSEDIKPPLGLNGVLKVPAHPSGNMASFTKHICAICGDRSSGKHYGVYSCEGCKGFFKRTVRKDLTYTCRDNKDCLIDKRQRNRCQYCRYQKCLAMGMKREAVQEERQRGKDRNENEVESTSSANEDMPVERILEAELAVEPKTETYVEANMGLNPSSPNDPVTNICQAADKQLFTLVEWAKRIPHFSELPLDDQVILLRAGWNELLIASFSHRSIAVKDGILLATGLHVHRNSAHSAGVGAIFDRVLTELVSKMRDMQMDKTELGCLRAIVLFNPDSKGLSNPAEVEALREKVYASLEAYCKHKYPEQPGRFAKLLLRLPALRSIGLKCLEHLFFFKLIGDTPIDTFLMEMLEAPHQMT
From the text: (§1) Other assays described below, measure the ability of the compounds of the present invention to bind to, and/or activate various retinoid receptor subtypes. When in these assays a compound binds to a given receptor subtype and activates the transcription of a reporter gene through that subtype, then the compound is considered an agonist of that receptor subtype. […] In the below described assays the ability of the compounds to bind to RARα, RARβ, RARγ, RXRα, RXRβ and RXRγ receptors, and the ability or inability of the compounds to activate transcription of a reporter gene through these receptor subtypes can be tested. […] However, some of the compounds of the invention may behave as retinoid antagonists or partial antagonists and/or as inverse agonists. Because of the complex distribution of the different retinoid receptors in various organs of the mammalian body partial agonists and partial antagonists and compounds which have the characteristics of both may lend themselves to particularly useful therapeutic applications and may avoid serious side effects of conventional retinoid drugs.
(§2) A holoreceptor transactivation assay and a ligand binding assay which measure the antagonist/agonist like activity of the compounds of the invention, or their ability to bind to the several retinoid receptor subtypes, respectively, are described in published PCT Application No. WO WO93/11755 (particularly on pages 30-33 and 37-41) published on Jun. 24, 1993, the specification of which is also incorporated herein by reference. A detailed experimental procedure for holoreceptor transactivations has been described by Heyman et al. Cell 68, 397-406, (1992); Allegretto et al. J. Biol. Chem. 268, 26625-26633, and Mangelsdorf et al. The Retinoids: Biology, Chemistry and Medicine, pp 319-349, Raven Press Ltd., New York, which are expressly incorporated herein by reference. The results obtained in this assay are expressed in EC50 numbers, as they are also in the chimeric receptor transactivation assay. The results of ligand binding assay are expressed in Kd numbers. (See Cheng et al. Biochemical Pharmacology Vol. 22 pp 3099-3108, expressly incorporated herein by reference.)
(§3) Table 1 discloses the activity of certain exemplary compounds of the invention in the above-described chimeric receptor transactivation assay, holoreceptor transactivation assay and a ligand binding assays. Particularly, the transactivation data pertaining to RAR receptors were obtained in the chimeric assay, and the data pertaining to transactivation of RXR receptors were obtained in the holoreceptor transactivation assay.

[2] = molecular target: T1, RXRα; experiment: ligand binding assay, RXRα; conditions: read-out: RXR Bind Ki α
From the text: as §1, §2, §3

[3] = molecular target: T2, RXRβ (Mus musculus, UniProt P28704); experiment: holoreceptor transactivation assay, RXRβ; format: cell-based; conditions: for EC50: holoreceptor assay, read-out: RXR Trans EC50 β; for Emax: relative to 10^-6 M cyclopropyl penta-2,4-dienoic acid reference, read-out: % efficacy, RXRβ transactivation
T2 construct: expressed in transfected cells
T2 sequence (P28704 1-520): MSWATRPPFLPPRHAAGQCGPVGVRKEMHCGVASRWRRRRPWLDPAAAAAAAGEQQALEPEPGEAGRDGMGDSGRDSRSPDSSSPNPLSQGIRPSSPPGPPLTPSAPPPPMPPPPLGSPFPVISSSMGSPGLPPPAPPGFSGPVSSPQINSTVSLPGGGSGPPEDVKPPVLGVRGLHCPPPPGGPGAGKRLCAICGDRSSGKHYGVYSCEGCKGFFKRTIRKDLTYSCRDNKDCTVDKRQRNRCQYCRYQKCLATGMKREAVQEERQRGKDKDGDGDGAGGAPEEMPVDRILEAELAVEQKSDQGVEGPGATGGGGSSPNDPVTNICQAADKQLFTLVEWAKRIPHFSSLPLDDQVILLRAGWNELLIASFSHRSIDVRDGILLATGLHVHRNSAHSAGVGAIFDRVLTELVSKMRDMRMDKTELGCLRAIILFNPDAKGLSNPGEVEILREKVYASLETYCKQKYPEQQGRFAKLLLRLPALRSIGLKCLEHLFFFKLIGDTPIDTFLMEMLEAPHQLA
From the text: as §1, §2, §3

[4] = molecular target: T3, RARγ (Homo sapiens, UniProt P13631); experiment: ligand binding assay, RARγ; conditions: read-out: RAR Bind Ki γ
T3 sequence (P13631 1-454): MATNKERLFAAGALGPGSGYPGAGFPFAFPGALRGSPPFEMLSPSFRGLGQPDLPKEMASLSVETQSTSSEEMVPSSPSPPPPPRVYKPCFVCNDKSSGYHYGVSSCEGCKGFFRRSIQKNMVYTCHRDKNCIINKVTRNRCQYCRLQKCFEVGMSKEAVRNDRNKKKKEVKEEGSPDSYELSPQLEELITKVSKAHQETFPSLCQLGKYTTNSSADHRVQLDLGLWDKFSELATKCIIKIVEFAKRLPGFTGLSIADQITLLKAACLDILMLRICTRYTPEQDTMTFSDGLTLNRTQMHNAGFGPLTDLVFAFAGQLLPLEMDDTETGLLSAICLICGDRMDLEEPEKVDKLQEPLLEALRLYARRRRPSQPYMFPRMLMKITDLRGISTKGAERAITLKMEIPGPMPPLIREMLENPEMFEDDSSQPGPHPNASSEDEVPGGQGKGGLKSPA
From the text: as §1, §2, §3

| SMILES | EC50 [1] | Emax [1] | Ki [2] | EC50 [3] | Emax [3] | Ki [4] |
| --- | --- | --- | --- | --- | --- | --- |
| CCN(c1ccc(C(=O)O)cc1)c1cc2c(cc1C)C(C)(C)CCN2C(C)C [Compound 52, 4-[-(1-Isopropyl-4,4,6-trimethyl-1,2,3,4-tetrahydro-quinolin-7-yl)ethylamino]-benzoic acid] | 0.2 nM | 94% | 28 nM | 2 nM | 96% | 10000 nM |
| CC(C)N1CCC(C)(C)c2ccc(N(CC3CC3)c3ccc(C(=O)O)cc3)cc21 [Compound 40, 4-[(1-Isolpropyl-4,4-dimethyl-1,2,3,4-tetrahydroquinolin-7-yl)(cylopropylmethyl)amino]benzoic acid] | 0.1 nM | 110% | 9 nM | 3 nM | 93% | 3500 nM |
| CCN(c1ccc(C(=O)O)cc1)c1ccc2c(c1)C(C)(C)CC(=O)N2C(C)C [Compound 6, 4-[(1-Isopropyl-4,4-dimethyl-2-oxo-1,2,3,4-tetrahydroquinolin-6-yl)ethylamino]benzoic Acid] | 1000 nM | 50% | 9000 nM | > 1000 nM | 40% | > 30000 nM |
| Cc1cc2c(cc1N(C)c1ccc(C(=O)O)cc1)N(C(C)C)CCC2(C)C [Compound 51, 4-[(1-Isopropyl-4,4,6-trimethyl-1,2,3,4-tetrahydro-quinolin-7-yl)-methyl-amino]-benzoic acid] | 32 nM | 92% | 221 nM | 374 nM | 119% | > 10000 nM |
| Cc1cc2c(cc1N(C)c1ccc(C(=O)O)cc1)C(C)(C)CCN2C(C)C [Compound 22, 4-[(1-Isopropyl-4,4,7-trimethyl-1,2,3,4-tetrahydroquinolin-6-yl)methylamino]benzoic acid] | 1000 nM | 80% | 1200 nM | > 1000 nM | 15% | 1700 nM |
| CCN(c1ccc(C(=O)O)cc1)c1ccc2c(c1)N(C(C)C)CCC2(C)C [Compound 38, 4-[(1-Isopropyl-4,4-dimethyl-1,2,3,4-tetrahydroquinolin-7-yl)ethylamino]benzoic acid] | 0.6 nM | 114% | 10 nM | 7 nM | 102% | 6300 nM |
| CCN(c1ccc(C(=O)O)cc1)c1ccc2c(c1)C(C)(C)CCN2C(C)C [Compound 12, 4-[(1-Isopropyl-4,4-dimethyl-1,2,3,4-tetrahydroquinolin-6-yl)ethylamino]benzoic acid] | 78 nM | 134% | 136 nM | 1000 nM | 75% | 1000 nM |
| CC(C)CCN(c1ccc(C(=O)O)cc1)c1ccc2c(c1)C(C)(C)CCN2C(C)C [Compound 14, 4-[(1-Isopropyl-4,4-dimethyl-1,2,3,4-tetrahydroquinolin-6-yl)(3-methylbutyl)amino]-benzoic Acid] | – | – | 904 nM | – | – | 1500 nM |
| CCN(c1ccc(C(=O)O)cc1)c1cc2c(cc1C)N(C(C)C)CCC2(C)C [Compound 24, 4-[(1-Isopropyl-4,4,7-trimethyl-1,2,3,4-tetrahydroquinolin-6-yl)ethylamino]benzoic acid] | 36 nM | 90% | 448 nM | 1000 nM | 70% | 9200 nM |
| Cc1cc2c(cc1N(CC1CC1)c1ccc(C(=O)O)cc1)C(C)(C)CCN2C(C)C [Compound 26, 4-[(1-Isopropyl-4,4,7-trimethyl-1,2,3,4-tetrahydro-quinolin-6-yl)(cyclopropylmethyl)amino]benzoic acid] | > 1000 nM | 25% | 413 nM | > 1000 nM | 10% | 4700 nM |
| CC(C)N1CCC(C)(C)c2cc(N(C)c3ccc(C(=O)O)cc3)ccc21 [Compound 10, 4-[(1-Isopropyl-4,4-dimethyl-1,2,3,4-tetrahydroquinolin-6-yl)methylamino]benzoic Acid] | 1000 nM | 70% | > 1000 nM | – | – | > 10000 nM |
| CCCN(c1ccc(C(=O)O)cc1)c1cc2c(cc1C)C(C)(C)CCN2C(C)C [Compound 53, 4-[(1-Isopropyl-4,4,6-trimethyl-1,2,3,4-tetrahydro-quinolin-7-yl)-propyl-amino]-benzoic acid] | 0.2 nM | 92% | 44 nM | 2 nM | 93% | 17000 nM |
| Cc1cc2c(cc1Nc1ccc(C(=O)O)cc1)N(C(C)C)CCC2(C)C [Compound 50, 4-(1-Isopropyl-4,4,6-trimethyl-1,2,3,4-tetrahydro-quinolin-7-ylamino)-benzoic acid] | 4 nM | 103% | 327 nM | 27 nM | 104% | > 10000 nM |
| CC(C)CN(c1ccc(C(=O)O)cc1)c1ccc2c(c1)N(C(C)C)CCC2(C)C [Compound 39, 4-[(1-Isopropyl-4,4-dimethyl-1 2,3,4-tetrahydroquinolin-7-yl)isobutylamino]benzoic acid] | 1 nM | 121% | 49 nM | 10 nM | 97% | 2800 nM |
